# Test results published in ChEMBL document CHEMBL5380808, “Design, Synthesis, and Biological Activity of Marinacarboline Analogues as STAT3 Pathway Inhibitors for Docetaxel-Resistant Triple-Negative Breast Cancer” (J Med Chem, 2023).
# The source made the active and inactive calls. The calls are words filed in the database; no cut-off is given here.
# Assays:
# MDA-MB-231 [1] = assay: Antitumor activity against docetaxel-resistant human MDA-MB-231-DTR cells xenografted in BALB/c mouse assessed as downregulation of phosphorylated STAT3 level in tumor tissue at 10 mg/kg, ip daily for 12 days by Immunohistochemical analysis; format: functional, organism-based; conditions: time 12.0 day
# [2] = Induction of cell cycle arrest in docetaxel-resistant human MDA-MB-231-DTR cells assessed as accumulation at G2/M phase at 5 uM incubated for 36 hrs by PI staining based flow cytometry analysis (reference value: 13.54%); format: functional
# [3] = Synergistic antiproliferative activity against docetaxel-resistant human MDA-MB-231-DTR cells assessed as combination index at 2 uM incubated for 72 hrs in presence of 2 uM of docetaxel by Chou-Talalay method; format: functional
# MDA-MB-231 [4] = assay: Antitumor activity against docetaxel-resistant human MDA-MB-231-DTR cells xenografted in BALB/c mouse assessed as upregulation of E-cadherin level in tumor tissue at 10 mg/kg, ip daily for 12 days by Immunohistochemical analysis; format: functional, organism-based; conditions: time 12.0 day
# [5] = Antiproliferative activity against […] cells assessed as reduction in cell viability incubated for 72 hrs by MTT assay; format: functional, cell-based
# [6] = Induction of apoptosis in docetaxel-resistant human MDA-MB-231-DTR cells assessed as increase in total cell death at 2.5 uM incubated for 48 hrs by Annexin V-FITC and PI staining based flow cytometry; format: functional
# [7] = Induction of cell cycle arrest in docetaxel-resistant human MDA-MB-231-DTR cells assessed as accumulation at S phase at 5 uM incubated for 36 hrs by PI staining based flow cytometry analysis (reference value: 11.57%); format: functional
# [8] = biological target: Signal transducer and activator of transcription 3 (Homo sapiens) (UniProt P40763); assay: Inhibition of STAT3 phosphorylation at Y705 residue in human MDA-MB-231 cells assessed as decrease in phosphorylated STAT3 level at 5 uM incubated for 24 hrs by Western blot analysis; format: cell-based
# Sequence of Signal transducer and activator of transcription 3 (Homo sapiens) (P40763 whole entry): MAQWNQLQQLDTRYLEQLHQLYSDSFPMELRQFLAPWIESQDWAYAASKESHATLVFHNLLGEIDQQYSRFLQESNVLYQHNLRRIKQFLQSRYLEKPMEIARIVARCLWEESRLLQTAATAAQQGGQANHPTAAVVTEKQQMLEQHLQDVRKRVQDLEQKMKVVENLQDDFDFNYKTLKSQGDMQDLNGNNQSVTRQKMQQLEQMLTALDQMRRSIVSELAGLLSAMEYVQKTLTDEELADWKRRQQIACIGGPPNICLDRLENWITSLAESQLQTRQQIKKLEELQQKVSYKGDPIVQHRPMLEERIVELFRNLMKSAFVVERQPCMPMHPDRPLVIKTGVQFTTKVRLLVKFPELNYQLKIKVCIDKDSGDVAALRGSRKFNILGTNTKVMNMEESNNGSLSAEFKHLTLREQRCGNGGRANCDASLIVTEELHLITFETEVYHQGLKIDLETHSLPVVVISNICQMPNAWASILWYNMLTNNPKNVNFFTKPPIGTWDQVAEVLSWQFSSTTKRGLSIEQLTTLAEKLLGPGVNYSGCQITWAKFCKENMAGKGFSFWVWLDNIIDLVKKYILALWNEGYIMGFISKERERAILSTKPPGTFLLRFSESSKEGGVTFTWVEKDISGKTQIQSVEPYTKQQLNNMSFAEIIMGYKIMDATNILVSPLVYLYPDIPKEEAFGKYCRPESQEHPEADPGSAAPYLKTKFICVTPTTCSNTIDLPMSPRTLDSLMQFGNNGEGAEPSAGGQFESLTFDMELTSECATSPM
# [9] = Induction of cell cycle arrest in docetaxel-resistant human MDA-MB-231-DTR cells assessed as accumulation at S phase at 5 uM incubated for 24 hrs by PI staining based flow cytometry analysis (reference value: 10.56%); format: functional
# [10] = Synergistic antiproliferative activity against docetaxel-resistant human MDA-MB-231-DTR cells assessed as combination index at 8 uM incubated for 72 hrs in presence of 2 uM of docetaxel by Chou-Talalay method; format: functional
# [11] = Induction of cell cycle arrest in docetaxel-resistant human MDA-MB-231-DTR cells assessed as accumulation at S phase at 5 uM incubated for 36 hrs by PI staining based flow cytometry analysis (reference value: 10.56%); format: functional
# [12] = Induction of cell cycle arrest in docetaxel-resistant human MDA-MB-231-DTR cells assessed as accumulation at G2/M phase at 2.5 uM incubated for 36 hrs by PI staining based flow cytometry analysis (reference value: 13.16%); format: functional
# MDA-MB-231 [13] = assay: Inhibition of cell migration in docetaxel-resistant human MDA-MB-231-DTR cells assessed as downregulation of vimentin expression level at 3 to 6 uM incubated for 24 hrs by Western blot analysis; format: functional, cell-based; conditions: dose 3-6 µM
# [14] = biological target: Signal transducer and activator of transcription 3 (Homo sapiens) (UniProt P40763); assay: Inhibition of STAT3 phosphorylation at Y705 residue in docetaxel-resistant human MDA-MB-231-DTR cells assessed as decrease in phosphorylated STAT3 level at 2.5 to 10 uM incubated for 24 hrs by Western blot analysis; format: cell-based; conditions: dose 2.5-10 µM
# MDA-MB-231 [15] = assay: Inhibition of cell migration in docetaxel-resistant human MDA-MB-231-DTR cells assessed as upregulation of E-cadherin expression level at 3 to 6 uM incubated for 24 hrs by Western blot analysis; format: functional, cell-based; conditions: dose 3-6 µM
# [16] = biological target: T1, Signal transducer and activator of transcription 1-alpha/beta (Homo sapiens) (UniProt P42224); assay: Inhibition of STAT1 phosphorylation at S727 residue in docetaxel-resistant human MDA-MB-231-DTR cells assessed as decrease in phosphorylated STAT1 level at 2.5 to 10 uM incubated for 24 hrs by Western blot analysis; format: cell-based; conditions: dose 2.5-10 µM
# T1 sequence (whole entry): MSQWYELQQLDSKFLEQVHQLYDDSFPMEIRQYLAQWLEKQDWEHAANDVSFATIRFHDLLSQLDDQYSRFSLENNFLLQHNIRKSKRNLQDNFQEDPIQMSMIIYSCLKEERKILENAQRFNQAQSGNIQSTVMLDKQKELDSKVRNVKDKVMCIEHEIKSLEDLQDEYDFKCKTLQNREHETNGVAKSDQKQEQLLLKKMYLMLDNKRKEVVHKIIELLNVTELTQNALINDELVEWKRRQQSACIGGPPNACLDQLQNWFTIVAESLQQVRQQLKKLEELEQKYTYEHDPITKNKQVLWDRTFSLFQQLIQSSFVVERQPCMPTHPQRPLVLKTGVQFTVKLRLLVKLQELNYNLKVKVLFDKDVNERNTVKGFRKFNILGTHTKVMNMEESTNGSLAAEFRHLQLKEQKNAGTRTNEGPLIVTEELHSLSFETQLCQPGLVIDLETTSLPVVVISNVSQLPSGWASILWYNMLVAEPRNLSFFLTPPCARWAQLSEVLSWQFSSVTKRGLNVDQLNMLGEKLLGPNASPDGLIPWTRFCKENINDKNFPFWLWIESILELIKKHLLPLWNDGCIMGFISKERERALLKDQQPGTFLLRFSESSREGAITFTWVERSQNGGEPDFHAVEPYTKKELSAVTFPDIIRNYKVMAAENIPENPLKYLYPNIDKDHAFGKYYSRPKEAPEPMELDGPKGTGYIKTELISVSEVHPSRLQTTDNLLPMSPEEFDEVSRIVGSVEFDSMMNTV
# MDA-MB-231 [17] = assay: Antitumor activity against docetaxel-resistant human MDA-MB-231-DTR cells xenografted in BALB/c mouse assessed as downregulation of vimentin level in tumor tissue at 10 mg/kg, ip daily for 12 days by Immunohistochemical analysis; format: functional, organism-based; conditions: time 12.0 day
# [18] = Antiproliferative activity against docetaxel-resistant human MDA-MB-231-DTR cells assessed as reduction in cell viability incubated for 72 hrs by sulforhodamine B assay; format: functional, cell-based; conditions: MDA-MB-231, 72 h
# MDA-MB-231 [19] = assay: Induction of cell cycle arrest at G2/M phase in docetaxel-resistant human MDA-MB-231-DTR cells assessed as upregulation of Chk2 phosphorylation at T68 at 2.5 to 10 uM incubated for 36 hrs by Western blot analysis; format: functional, cell-based; conditions: dose 2.5-10 µM
# MDA-MB-231 [20] = assay: Induction of apoptosis in docetaxel-resistant human MDA-MB-231-DTR cells assessed as downregulation of Bcl2 expression level at 2.5 to 10 uM incubated for 48 hrs by Western blot analysis; format: functional, cell-based; conditions: dose 2.5-10 µM
# [21] = Synergistic antiproliferative activity against docetaxel-resistant human MDA-MB-231-DTR cells assessed as combination index at 8 uM incubated for 72 hrs in presence of 4 uM of docetaxel by Chou-Talalay method; format: functional
structure (smiles),measurement,setting,value
O=C(NCCc1c[nH]c2ccccc12)c1cc2c([nH]c3ccccc32)c(C(=O)c2ccc(Br)cc2)n1,Activity,MDA-MB-231 [1],Active
same,Activity,[2],26.59%
same,CI,[3],0.23
same,Activity,MDA-MB-231 [4],Active
same,IC50,[5],3.24 µM
same,Activity,[6],5.55%
same,Activity,[7],20.82%
same,inhibition,[8],Active
same,Activity,[9],18.28%
same,CI,[10],0.45
same,Activity,[11],14.21%
same,Activity,[12],25.18%
same,inhibition,MDA-MB-231 [13],Active
same,inhibition,[14],Active
same,inhibition,MDA-MB-231 [15],Active
same,inhibition,[16],inactive
same,Activity,MDA-MB-231 [17],Active
same,IC50,[18],2.96 µM
same,Activity,MDA-MB-231 [19],Active
same,Activity,MDA-MB-231 [20],Active
same,CI,[21],0.32
